Data set [1] relates to HCT-116 (colorectal carcinoma). The data set can be described thus: MTT cytotoxicity assay, HCT-116. Conditions: Homo sapiens, mean ± SD, triplicate. The data set is classed as cell-based. The protocol:
(§1) The in vitro anticancer activity of the new benzothiazole hybrids was evaluated by performing MTT assay as in the literature[51]^,[55]^,[56].
(Formazan colour is commonly taken as a measure of viable cells.)

Data set [2] relates to HEPG-2 (hepatocellular carcinoma). The data set can be described thus: MTT cytotoxicity assay, HepG-2. The class given is cell-based. Conditions: Homo sapiens, HepG2, mean ± SD, triplicate. The protocol:
as §1

The subject of another data set is MCF-7 (breast cancer). The data set can be described thus: MTT cytotoxicity assay, MCF-7. Conditions: Homo sapiens, MCF7, mean ± SD, triplicate. The data set is classed as cell-based. As for the experimental part:
as §1

Data set [3] concerns WI-38 normal fibroblast cells. Put plainly: MTT cytotoxicity against normal cells. The data set is classed as cell-based. Conditions: Homo sapiens, mean ± SD, triplicate. The protocol: as §1
All tested compounds were studied for their cytotoxic activity on the WI-38 normal fibroblast WI-38 cells to assess their therapeutic safety.

Data set [4] addresses T1, VEGFR-2 (Homo sapiens, UniProt P35968).
T1 construct: VEGFR-2 enzyme assay was performed as reported[57]
The data set can be described thus: In vitro VEGFR-2 kinase inhibitory assay. The class given is biochemical. Conditions: for inhibition at 1 µM: VEGFR-2, compound at 1 μM; for inhibition at 10 µM: VEGFR-2, compound at 10 μM; for % Inhibition 10 nm: VEGFR-2, compound at 10 nm; for % Inhibition 100 nm: VEGFR-2, compound at 100 nm; for IC50: four concentrations 10 nM–10 μM.

The subject of data set [5] is MCF-7 cells. Put plainly: Flow cytometry cell cycle analysis (PI staining). The data set is classed as cell-based, human. Conditions: for Cell cycle distribution (%) G2-M / Cell cycle distribution (%) S / Cell cycle distribution (%) G0-G1: MCF-7, IC50 concentration, 24 h; for Cell cycle distribution (%) G2-M: control (DMSO) 10.19; for Cell cycle distribution (%) S: control (DMSO) 31.89; for Cell cycle distribution (%) G0-G1: control (DMSO) 57.92; for phase of cell cycle arrest: MCF-7, 24 h. As for the experimental part:
It was carried out using MCF-7 cell lines stained with PI and analysed by FACS Calibur flow cytometer as reported[51]^,[58].
The cells were treated with DMSO as a control.

The subject of data set [6] is MCF-7 cells. Put plainly: Annexin V-FITC/PI apoptosis assay. The data set is classed as cell-based, human. Conditions: MCF-7, 24 h; untreated control 0.59%. The protocol: The extent of apoptosis was evaluated on MCF-7 cells and Annexin V-FITC/PI apoptosis detection kit following the reported method[51]^,[59].
The development of apoptosis inducers is highly attractive therapeutic strategy for the identification of powerful anticancer drugs[67]^,[68].

In data set [7] the test system is HCT-116, HEPG-2, and MCF-7. The data set can be described thus: MTT cytotoxicity assay, range over the three cancer cell lines. The data set is classed as cell-based, human. Conditions: range over HCT-116, HEPG-2 and MCF-7, read-out: IC50 range towards the three cell lines. As for the experimental part:
as §1

Data set [8] addresses T1, VEGFR-2. Conditions: cited from earlier work.

Molecules are shown by their SMILES. Like-named read-outs stand apart in the source and are kept apart here.

What is called IC50 is the concentration that inhibits the measured activity by half. As usually defined, the inhibition is the change of the read-out against control, counted positive when it falls. A lower inhibition goes with a weak effect. As usually defined, the melting point is the temperature of the solid-liquid transition.

T1 sequence (P35968 20-1356): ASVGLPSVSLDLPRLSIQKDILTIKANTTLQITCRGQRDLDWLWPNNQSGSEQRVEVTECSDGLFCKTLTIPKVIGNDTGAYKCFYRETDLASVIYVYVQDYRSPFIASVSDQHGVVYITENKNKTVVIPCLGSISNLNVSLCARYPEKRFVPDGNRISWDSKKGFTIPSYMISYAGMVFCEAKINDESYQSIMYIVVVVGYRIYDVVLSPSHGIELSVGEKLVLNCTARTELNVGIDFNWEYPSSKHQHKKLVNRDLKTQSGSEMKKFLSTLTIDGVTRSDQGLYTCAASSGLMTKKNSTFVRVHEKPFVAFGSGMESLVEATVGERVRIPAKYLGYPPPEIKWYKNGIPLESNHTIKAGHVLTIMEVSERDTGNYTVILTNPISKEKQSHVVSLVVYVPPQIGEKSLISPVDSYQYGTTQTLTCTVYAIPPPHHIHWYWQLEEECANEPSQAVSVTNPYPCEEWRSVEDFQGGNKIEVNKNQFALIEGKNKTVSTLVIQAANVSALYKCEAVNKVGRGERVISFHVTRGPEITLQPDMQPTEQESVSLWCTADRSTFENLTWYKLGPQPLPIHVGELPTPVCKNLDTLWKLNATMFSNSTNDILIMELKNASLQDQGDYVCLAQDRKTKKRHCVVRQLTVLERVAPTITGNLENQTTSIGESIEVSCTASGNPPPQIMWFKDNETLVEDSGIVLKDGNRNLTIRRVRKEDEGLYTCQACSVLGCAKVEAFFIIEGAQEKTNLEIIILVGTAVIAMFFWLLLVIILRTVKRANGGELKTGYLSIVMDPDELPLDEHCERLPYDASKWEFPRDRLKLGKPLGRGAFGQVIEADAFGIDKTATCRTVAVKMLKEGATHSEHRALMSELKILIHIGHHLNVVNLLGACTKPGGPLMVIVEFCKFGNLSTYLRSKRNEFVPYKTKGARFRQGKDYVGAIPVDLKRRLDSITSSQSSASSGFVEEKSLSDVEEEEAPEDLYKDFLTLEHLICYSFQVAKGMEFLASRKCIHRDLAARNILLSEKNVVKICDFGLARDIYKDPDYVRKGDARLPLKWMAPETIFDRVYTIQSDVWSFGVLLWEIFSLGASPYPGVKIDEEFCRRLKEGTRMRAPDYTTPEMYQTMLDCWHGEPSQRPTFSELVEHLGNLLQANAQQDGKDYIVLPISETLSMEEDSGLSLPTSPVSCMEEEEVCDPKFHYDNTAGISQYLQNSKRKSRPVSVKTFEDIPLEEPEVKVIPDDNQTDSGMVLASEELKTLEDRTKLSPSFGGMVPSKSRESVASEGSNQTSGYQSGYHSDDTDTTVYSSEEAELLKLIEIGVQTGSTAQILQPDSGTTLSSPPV

In data set [1], `O=C(CN1C(=O)SC(=Cc2ccc(F)cc2)C1=O)Nc1nc2ccc([N+](=O)[O-])cc2s1` [4a, 2-(5-(4-Fluorobenzylidene)-2,4-dioxothiazolidin-3-yl)-N-(6-nitrobenzo[d]thiazol-2-yl)acetamide] came in with an IC50 of 5.61 ± 0.3 µM. Also, it took 7.92 ± 0.6 µM to reach half-maximal inhibition in data set [2] (IC50). Further, the IC50 in the data set with MCF-7 (breast cancer) turned out to be 3.84 ± 0.1 µM. The compound also displayed an IC50 in data set [3] of 45.2 ± 2.6 µM. In addition, at VEGFR-2 [4], the inhibition at 1 µM is 77.9%, the inhibition at 10 µM worked out at 92%, the “% Inhibition 10 nm” value amounted to 31.27% and the “% Inhibition 100 nm” value was found to be 45.14%. This compound had a half-inhibitory concentration (IC50) on VEGFR-2 [4] of 91 nM. In addition, in the data set on MCF-7 cells [5], the “Cell cycle distribution (%) G2-M” value is 3.28%, the “Cell cycle distribution (%) S” value stood at 49.85% and the “Cell cycle distribution (%) G0-G1” value was 46.87%. The “ratio of total apoptotic cells (early and late apoptotic cells)” value (shortened to “ratio of total apoptotic cells”) in the data set with MCF-7 cells [6] came to 49.71%. In data set [7] (Homo sapiens), the concentration for half-maximal inhibition (IC50) is 3.84 to 9.04 µM.
On to `O=C(CN1C(=O)S/C(=C\c2ccc(F)cc2)C1=O)Nc1nc2ccccc2s1` [X], for which, at VEGFR-2 [8], the IC50 was 0.19 µM.
Take `O=C(CN1C(=O)SC(=Cc2ccc(Br)cc2)C1=O)Nc1nc2ccc([N+](=O)[O-])cc2s1` [4c, 2-(5-(4-Bromobenzylidene)-2,4-dioxothiazolidin-3-yl)-N-(6-nitrobenzo[d]thiazol-2-yl)acetamide]: the half-inhibitory concentration (IC50) in data set [1] was 47.9 ± 2.9 µM; in [2] it was 65.5 ± 3.6 µM; in the data set on MCF-7 (breast cancer), 50.1 ± 2.9 µM; in data set [3], 28.9 ± 2.2 µM; in data set [7] (Homo sapiens), 47.9 to 65.5 µM.
`Cc1ccc(-c2nc(SCC(=O)Nc3nc4ccc([N+](=O)[O-])cc4s3)[nH]c(=O)c2C#N)cc1` [8a]: in [1], the concentration for half-maximal inhibition (IC50) is 13.9 ± 1 µM. Moreover, the concentration for half-maximal inhibition (IC50) in [2] is 18.1 ± 1.4 µM. In the data set on MCF-7 (breast cancer), this compound yielded a concentration for half-maximal inhibition (IC50) of 10.9 ± 0.8 µM. Further, the IC50 in [3] amounted to 53.1 ± 3.1 µM. At VEGFR-2 [4], the inhibition at 1 µM is 70.1%, 10 µM produced 83.5% inhibition, the “% Inhibition 10 nm” value was determined as 16.31% and the “% Inhibition 100 nm” value was found to be 37.14%. Besides, the half-maximal inhibitory concentration (IC50) against VEGFR-2 [4] worked out at 266 nM. Also, in the data set on MCF-7 cells [5], the “phase of cell cycle arrest” value was “G1/S phase”, the “Cell cycle distribution (%) G2-M” value is listed as 2.53%, the “Cell cycle distribution (%) S” value is listed as 36.11% and the “Cell cycle distribution (%) G0-G1” value worked out at 61.36%. For the same compound, the “ratio of total apoptotic cells” value in the data set on MCF-7 cells [6] is given as 30.75%. The IC50 in data set [7] (Homo sapiens) was in the range of 10.9 to 18.1 µM.
As to `CNC(=O)c1cc(Oc2ccc(NC(=O)Nc3ccc(Cl)c(C(F)(F)F)c3)cc2)ccn1` [SOR, Sorafenib, reference compound], the IC50 in data set [1] amounted to 5.23 ± 0.3 µM; in data set [2] it was 4.5 ± 0.2 µM; in the data set with MCF-7 (breast cancer), 4.17 ± 0.2 µM; in data set [3], 6.72 ± 0.5 µM.
For the compound `Cc1ccc(C=C2SC(=O)N(CC(=O)Nc3nc4ccc([N+](=O)[O-])cc4s3)C2=O)cc1` [4d, 2-(5-(4-Methylbenzylidene)-2,4-dioxothiazolidin-3-yl)-N-(6-nitrobenzo[d]thiazol-2-yl)acetamide], the melting point was 201 to 203 °C. Inhibition in data set [1] was half-maximal at 26.8 ± 2.1 µM (IC50). The compound further came in with an IC50 in [2] of 21.1 ± 1.8 µM. The compound further displayed an IC50 with MCF-7 (breast cancer) of 15.5 ± 1.2 µM. The compound also showed an IC50 in data set [3] of 74 ± 4.1 µM. Also, in data set [7] (Homo sapiens), the half-inhibitory concentration (IC50) fell in the range of 15.5 to 26.8 µM.
In data set [1], `COc1cc(C=C2SC(=O)N(CC(=O)Nc3nc4ccc([N+](=O)[O-])cc4s3)C2=O)cc(OC)c1OC` [4e, 2-(2,4-Dioxo-5–(3,4,5-trimethoxybenzylidene)thiazolidin-3-yl)-N-(6-nitrobenzo[d]thiazol-2-yl)acetamide] registered an IC50 of 8.24 ± 0.6 µM. The compound further displayed an IC50 in [2] of 9.04 ± 0.8 µM. In the data set with MCF-7 (breast cancer), the half-maximal inhibitory concentration (IC50) worked out at 6.11 ± 0.4 µM. Besides, in [3], the half-maximal inhibitory concentration (IC50) was found to be 32.8 ± 2.3 µM. For the same compound, on VEGFR-2 [4], the inhibition at 1 µM was 70.5%, the inhibition at 10 µM is 88.7%, the “% Inhibition 10 nm” value is given as 24.09% and the “% Inhibition 100 nm” value was found to be 42.84%. The compound also showed a half-maximal inhibitory concentration (IC50) at VEGFR-2 [4] of 161 nM. Besides, in the data set with MCF-7 cells [5], the “phase of cell cycle arrest” value is “S phase”, the “Cell cycle distribution (%) G2-M” value amounted to 4.99%, the “Cell cycle distribution (%) S” value was 42.66% and the “Cell cycle distribution (%) G0-G1” value is reported as 52.35%. For the same compound, the “ratio of total apoptotic cells” value in the data set with MCF-7 cells [6] stood at 42.17%. In addition, in data set [7] (Homo sapiens), the half-maximal inhibitory concentration (IC50) fell in the range of 3.84 to 9.04 µM. In [7], the concentration for half-maximal inhibition (IC50) was 6.11 to 9.04 µM.
`COc1ccc(C=C2SC(=O)N(CC(=O)Nc3nc4ccc([N+](=O)[O-])cc4s3)C2=O)cc1` [4b, 2-(5-(4-Methoxybenzylidene)-2,4-dioxothiazolidin-3-yl)-N-(6-nitrobenzo[d]thiazol-2-yl)acetamide]: the IC50 is 29.9 ± 2.2 µM in data set [1]; 34.7 ± 2.4 µM in data set [2]; 22.3 ± 1.7 µM with MCF-7 (breast cancer); 77.6 ± 4.3 µM in [3]; 22.3 to 34.7 µM in data set [7] (Homo sapiens).

The record behind these values is article PMC9879182, “New benzothiazole hybrids as potential VEGFR-2 inhibitors: design, synthesis, anticancer evaluation, and in silico study” (Journal of Enzyme Inhibition and Medicinal Chemistry, 2023).
